Assay results from patent publication US11084818B2 (HEPO PHARMACEUTICAL CO., LTD., priority 2016, dated 2021).

What was measured:
[1] = molecular target: T1, hTLR7 (Homo sapiens, UniProt Q9NYK1); assay: Activation activity test of hTLR7 (HEK-Blue hTLR7 cells, QUANTI-Blue OD650); assay type: cell-based; settings: 24 hours incubation, read-out: TLR7 (EC50)
T1 construct: host or cells: HEK-Blue hTLR7 (HEK293-derived reporter line)
T1 sequence (Q9NYK1 27-1049): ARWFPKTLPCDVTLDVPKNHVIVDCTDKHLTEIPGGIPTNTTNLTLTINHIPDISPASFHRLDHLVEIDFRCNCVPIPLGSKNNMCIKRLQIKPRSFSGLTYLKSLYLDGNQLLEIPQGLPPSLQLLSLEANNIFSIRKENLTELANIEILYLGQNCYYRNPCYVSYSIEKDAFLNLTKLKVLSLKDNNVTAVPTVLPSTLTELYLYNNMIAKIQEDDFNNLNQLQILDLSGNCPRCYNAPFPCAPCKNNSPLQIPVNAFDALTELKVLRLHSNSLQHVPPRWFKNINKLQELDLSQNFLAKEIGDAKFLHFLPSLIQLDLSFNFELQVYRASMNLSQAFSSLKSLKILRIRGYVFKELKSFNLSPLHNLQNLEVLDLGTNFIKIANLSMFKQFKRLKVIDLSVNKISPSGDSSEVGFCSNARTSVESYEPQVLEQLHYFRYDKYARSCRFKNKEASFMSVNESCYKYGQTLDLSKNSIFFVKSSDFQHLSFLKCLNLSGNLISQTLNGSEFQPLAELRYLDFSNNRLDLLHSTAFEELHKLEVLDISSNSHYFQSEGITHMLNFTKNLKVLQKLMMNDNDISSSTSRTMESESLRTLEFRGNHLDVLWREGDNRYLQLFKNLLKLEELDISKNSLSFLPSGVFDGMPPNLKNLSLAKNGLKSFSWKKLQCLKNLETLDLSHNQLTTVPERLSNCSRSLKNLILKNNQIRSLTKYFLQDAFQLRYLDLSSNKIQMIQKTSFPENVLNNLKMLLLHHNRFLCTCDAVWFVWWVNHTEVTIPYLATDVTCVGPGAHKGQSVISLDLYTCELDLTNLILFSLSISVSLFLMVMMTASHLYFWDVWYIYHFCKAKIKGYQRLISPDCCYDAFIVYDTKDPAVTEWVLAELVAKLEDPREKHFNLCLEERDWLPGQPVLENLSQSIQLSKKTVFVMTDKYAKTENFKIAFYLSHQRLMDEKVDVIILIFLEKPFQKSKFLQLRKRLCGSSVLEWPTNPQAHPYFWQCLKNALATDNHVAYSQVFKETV
Method: (§1) Effect Example 1: Activation Activity Test of hTLR7 and hTLR8
(§2) Cell lines: HEK-Blue™ hTLR7 and HEK-Blue™ hTLR8 (InvivoGen Co.)
(§3) Primary reagents: QUANTI-Blue™ (InvivoGen) and ATPlite 1 Step (PerkinElmer)
(§4) Primary instruments: Automatic Liquid Handling Workstation (Labcyte, Model: Echo), Cell Counter (Countstar, IC1000) and Multifunctional Enzyme Marker (Molecular Device, Flexstation III).
(§5) 2.1 The tested compounds were formulated into a 60 mM concentrated stock solution in DMSO and stored in a nitrogen cabinet.
(§6) 2.3 The T150 cultured cells were taken out from the CO2 incubator and the cell culture supernatant was discarded. The cells were washed with PBS once, followed by addition of about 10 mL of the culture solution. The cells were dissociated by patting the cell culture flask, and gently blown to even by a pipette.
(§7) The cells were counted, and the cell suspension was adjusted to 200,000 cells/mL by the culture solution. Thereafter, 200 μL of diluted cells was added to each well in a 96-well plate containing the compound (40,000 cells/well).
(§8) 2.4 The compounds and cells were incubated in a 5% CO2 incubator at 37° C. for 24 hours.
(§9) 2.5 Compound activity assay: 20 μl of the cell supernatant of each well after induction was added to a cell culture plate containing 180 μL of reagent QUANTI-Blue™, and incubated at 37° C. for 1.5 hours. Thereafter, the optical density absorption (OD650) of each well at 650 nm was measured using a Multifunctional Enzyme Marker: Flexstation III.
(§10) 2.6 Compound Activity: OD650 values were analyzed using GraphPad Prism software and the dose-response curves for the compound were fitted to calculate the EC50 values of the compound.

[2] = molecular target: T2, hTLR8 (Homo sapiens, UniProt Q9NR97); assay: Activation activity test of hTLR8 (HEK-Blue hTLR8 cells, QUANTI-Blue OD650); assay type: cell-based; settings: for EC50: HEK-Blue hTLR8 cells, 24 hours incubation, read-out: TLR8 (EC50)
T2 construct: host or cells: HEK-Blue hTLR8 (HEK293-derived reporter line)
T2 sequence (Q9NR97 27-1041): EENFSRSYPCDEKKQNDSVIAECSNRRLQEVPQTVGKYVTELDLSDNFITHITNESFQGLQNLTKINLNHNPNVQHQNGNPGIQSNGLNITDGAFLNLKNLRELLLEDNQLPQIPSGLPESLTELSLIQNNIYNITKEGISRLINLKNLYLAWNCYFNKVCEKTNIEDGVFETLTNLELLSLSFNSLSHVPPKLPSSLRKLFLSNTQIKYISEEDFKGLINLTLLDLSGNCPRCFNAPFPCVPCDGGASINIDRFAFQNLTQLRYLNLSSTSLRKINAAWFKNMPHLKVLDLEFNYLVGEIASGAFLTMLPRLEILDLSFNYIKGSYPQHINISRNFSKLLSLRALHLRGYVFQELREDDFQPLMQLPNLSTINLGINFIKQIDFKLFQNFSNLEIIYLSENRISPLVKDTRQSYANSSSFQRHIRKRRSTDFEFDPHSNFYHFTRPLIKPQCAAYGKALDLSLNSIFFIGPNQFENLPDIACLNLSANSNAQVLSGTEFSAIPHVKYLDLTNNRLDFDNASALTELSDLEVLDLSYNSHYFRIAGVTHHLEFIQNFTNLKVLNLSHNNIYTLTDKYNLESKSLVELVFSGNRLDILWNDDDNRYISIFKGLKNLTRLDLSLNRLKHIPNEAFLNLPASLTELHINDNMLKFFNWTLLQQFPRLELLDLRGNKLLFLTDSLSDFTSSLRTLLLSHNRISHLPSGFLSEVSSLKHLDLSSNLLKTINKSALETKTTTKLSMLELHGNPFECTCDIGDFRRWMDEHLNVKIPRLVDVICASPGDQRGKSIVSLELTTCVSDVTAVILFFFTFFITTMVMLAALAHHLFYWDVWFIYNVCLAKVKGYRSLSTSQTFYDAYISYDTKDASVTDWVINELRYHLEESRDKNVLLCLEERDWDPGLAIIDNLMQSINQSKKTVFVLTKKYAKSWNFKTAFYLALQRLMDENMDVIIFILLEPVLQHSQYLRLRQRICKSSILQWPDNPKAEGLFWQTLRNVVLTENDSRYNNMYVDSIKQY
Method: as §1, §2, §3, §4, §5, §6, §7, §8, §9, §10

SMILES | EC50 [1] [µM] | EC50 [2] [µM] | agonistic activity against TLR8 ([2]; in words, from Table 1)
COCCOc1ncc2[nH]c(=O)n(Cc3ccc(CN4CC[C@@H](F)C4)cc3)c2n1 [Example 5, (R)-9-(4-((3-fluoropyrrolidin-1-yl)methyl)benzyl)-2-(2-methoxyethoxy)-7,9-dihydro-8H-purin-8-one] | 1 to 10 | > 100 | –
COCCOc1ncc2[nH]c(=O)n(Cc3ccc(CN4CC[C@@H](O)C4)cc3)c2n1 [Example 6, (R)-9-(4-((3-hydroxypyrrolidin-1-yl)methyl)benzyl)-2-(2-methoxyethoxy)-7,9-dihydro-8H-purin-8-one] | 10 to 100 | > 100 | –
COCCOc1ncc2[nH]c(=O)n(Cc3ccc(CN4CCC[C@@H]4C(=O)OC)cc3)c2n1 [Example 7, methyl (4-((2-(2-methoxyethoxy)-8-oxo-7,8-dihydro-9H-purin-9-yl)methyl)benzyl)-D-pyrrolidine-2-carboxylate] | 10 to 100 | > 100 | –
COCCOc1ncc2[nH]c(=O)n(Cc3ccc(CN4CCC[C@H]4C(=O)OC)cc3)c2n1 [Example 8, methyl (4-((2-(2-methoxyethoxy)-8-oxo-7,8-dihydro-9H-purin-9-yl)methyl)benzyl)-L-pyrrolidine-2-carboxylate] | 10 to 100 | > 100 | –
COCCOc1ncc2[nH]c(=O)n(Cc3ccc(CN(C)C)cc3)c2n1 [Example 9, 9-(4-((dimethylamino)methyl)benzyl)-2-(2-methoxyethoxy)-7,9-dihydro-8H-purin-8-one] | 1 to 10 | > 100 | –
CCN(CC)Cc1ccc(Cn2c(=O)[nH]c3cnc(OCCOC)nc32)cc1 [Example 10] | 1 to 10 | > 100 | –
COCCOc1ncc2[nH]c(=O)n(Cc3ccc(CN4CCC5(CC4)COC5)cc3)c2n1 [Example 11, 9-(4-((2-oxa-7-azaspiro[3.5]nonan-7-yl)methyl)benzyl)-2-(2-methoxyethoxy)-7,9-dihydro-8H-purin-8-one] | 1 to 10 | > 100 | –
COCCOc1ncc2[nH]c(=O)n(Cc3ccc(CN4C[C@H]5CN(C)C[C@H]5C4)cc3)c2n1 [Example 12] | 1 to 10 | > 100 | –
COCCOc1ncc2[nH]c(=O)n(Cc3ccc(CN4CC5CCC4C5)cc3)c2n1 (stereo not drawn) [Example 13, 2-(2-methoxyethoxy)-9-(4-((2-aza-bicyclo[2,2,1]heptan-2-yl)methyl)benzyl)-7,9-dihydro-8H-purin-8-one] | 1 to 10 | > 100 | –
COCCOc1ncc2[nH]c(=O)n(Cc3ccc(C(C)N4CCCC4)cc3)c2n1 (stereo not drawn) [Example 14, 2-(2-methoxyethoxy)-9-(4-(1-(pyrrolidin-1-yl)ethyl)benzyl)-7,9-dihydro-8H-purin-8-one] | 0.001 to 1 | > 100 | –
COCCOc1ncc2[nH]c(=O)n(Cc3ccc(C(C)N4CCCCC4)cc3)c2n1 (stereo not drawn) [Example 15, 2-(2-methoxyethoxy)-9-(4-(1-(piperidin-1-yl)ethyl)benzyl)-7,9-dihydro-8H-purin-8-one] | 0.001 to 1 | > 100 | –
COCCOc1ncc2[nH]c(=O)n(Cc3ccc(C(C)N4CCCCCC4)cc3)c2n1 (stereo not drawn) [Example 16, 2-(2-methoxyethoxy)-9-(4-(1-(azacycloheptane-1-yl)ethyl)benzyl)-7,9-dihydro-8H-purin-8-one] | 0.001 to 1 | > 100 | –
CCC(c1ccc(Cn2c(=O)[nH]c3cnc(OCCOC)nc32)cc1)N1CCCC1 (stereo not drawn) [Example 17] | 1 to 10 | > 100 | –
CCOCc1nc2c(N)nc3ccccc3c2n1CC(C)(C)O [Example R848, reference compound] | – | – | strong agonistic activity

Next, values leading:

EC50 [1] [µM] | EC50 [2] [µM] | agonistic activity against TLR8 ([2]; in words, from Table 1) | SMILES
1 to 10 | > 100 | – | COCCOc1ncc2[nH]c(=O)n(Cc3ccc(CN4CCCC4)cc3)c2n1 [Example 1, 2-(2-methoxyethoxy)-9-(4-(pyrrolidin-1-ylmethyl)benzyl)-7,9-dihydro-8H-purin-8-one]
10 to 100 | > 100 | – | COCCOc1ncc2[nH]c(=O)n(Cc3ccc(CN4CCC4)cc3)c2n1 [Example 2, 2-(2-methoxyethoxy)-9-(4-(azetidin-1-ylmethyl)benzyl)-7,9-dihydro-8H-purin-8-one]
1 to 10 | > 100 | – | COCCOc1ncc2[nH]c(=O)n(Cc3ccc(CN4CCCCC4)cc3)c2n1 [Example 3, 2-(2-methoxyethoxy)-9-(4-(piperidin-1-ylmethyl)benzyl)-7,9-dihydro-8H-purin-8-one]
1 to 10 | > 100 | – | COCCOc1ncc2[nH]c(=O)n(Cc3ccc(CN4CCCCCC4)cc3)c2n1 [Example 4, 2-(2-methoxyethoxy)-9-(4-(azepan-1-ylmethyl)benzyl)-7,9-dihydro-8H-purin-8-one]
1 to 10 | > 100 | – | COCCOc1ncc2[nH]c(=O)n(Cc3cccc(CN4CCCC4)c3)c2n1 [Example 18]
1 to 10 | > 100 | – | COCCOc1ncc2[nH]c(=O)n(Cc3cccc(CN4CCC4)c3)c2n1 [Example 19, 2-(2-methoxyethoxy)-9-(3-(azetidin-1-ylmethyl)benzyl)-7,9-dihydro-8H-purin-8-one]
10 to 100 | > 100 | – | COCCOc1ncc2[nH]c(=O)n(Cc3cccc(CN4CCCCC4)c3)c2n1 [Example 20, 2-(2-methoxyethoxy)-9-(3-(piperidin-1-ylmethyl)benzyl)-7,9-dihydro-8H-purin-8-one]
10 to 100 | > 100 | – | COCCOc1ncc2[nH]c(=O)n(Cc3cccc(CN4CCCCCC4)c3)c2n1 [Example 21, 2-(2-methoxyethoxy)-9-(3-(azepan-1-ylmethyl)benzyl)-7,9-dihydro-8H-purin-8-one]
10 to 100 | > 100 | – | COCCOc1ncc2[nH]c(=O)n(Cc3cccc(CN4CC[C@@H](F)C4)c3)c2n1 [Example 22, (R)-9-(3-((3-fluoropyrrolidin-1-yl)methyl)benzyl)-2-(2-methoxyethoxy)-7,9-dihydro-8H-purin-8-one]
